Experimental findings from US20160297833A1, “THIENOPYRIMIDINES AS MKNK1 AND MKNK2 INHIBITORS” (BAYER PHARMA AKTIENGESELLSCHAFT, priority 2013, published 2016) are described below.

As a reminder, the IC50 is the concentration that inhibits the measured activity by half.

For the first test, the target named is T1, human full-length MKNK1 (Homo sapiens, UniProt Q9BUB5, T385D).
T1 construct: GST (N); purchased Carna Biosciences 02-145; host or cells: insect cells (baculovirus expression system)
T1 sequence (Q9BUB5 1-424 isoform Q9BUB5-2 T344D): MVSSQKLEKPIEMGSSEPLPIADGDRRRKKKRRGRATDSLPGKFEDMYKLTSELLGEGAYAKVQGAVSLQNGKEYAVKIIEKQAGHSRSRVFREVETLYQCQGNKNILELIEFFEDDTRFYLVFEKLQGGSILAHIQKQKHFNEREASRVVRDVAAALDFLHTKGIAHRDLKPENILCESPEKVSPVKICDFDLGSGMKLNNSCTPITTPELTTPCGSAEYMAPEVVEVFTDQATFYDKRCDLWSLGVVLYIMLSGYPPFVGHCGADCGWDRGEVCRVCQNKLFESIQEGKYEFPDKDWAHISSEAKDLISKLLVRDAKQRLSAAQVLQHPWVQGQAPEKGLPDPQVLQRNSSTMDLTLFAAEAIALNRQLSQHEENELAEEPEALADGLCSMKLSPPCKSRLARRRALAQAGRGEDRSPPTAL
As to the kind of experiment: MKNK1 kinase high ATP assay (TR-FRET). It counts as biochemical. To be noted: Table 1; MKNK1 kinase high ATP assay, 2 mM ATP; read-out: MKNK1 IC50. An outline of the steps:
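Full-length human MKNK1 (T385D) preincubated 15 min at 22 °C with compound in HEPES pH 7.5/MgCl2/DTT buffer; reaction with 2 mM ATP (final) and 0.06 μM biotinylated peptide (final), 30 min at 22 °C.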
For orientation: In TR-FRET formats the signal depends on donor and acceptor labels being close together.
On to `CC(C)N(C(=O)[C@H]1CCc2c(sc3ncnc(Nc4ccc5[nH]ncc5c4)c23)C1)C(C)C` [Example 127, (7S)-4-(1H-Indazol-5-ylamino)-N,N-di(propan-2-yl)-5,6,7,8-tetrahydro[1]benzothieno[2,3-d]pyrimidine-7-carboxamide], for which the IC50 amounted to 6.5 nM.

For the compound `CC(C)Oc1cc2[nH]ncc2cc1Nc1ncnc2sc3c(c12)CC[C@@H](C(=O)N(C)C)C3` [Example 79, (7R)—N,N-Dimethyl-4-{[6-(propan-2-yloxy)-1H-indazol-5-yl]amino}-5,6,7,8-tetrahydro[1]benzothieno[2,3-d]pyrimidine-7-carboxamide], the IC50 was 12.1 nM.

As to `CCN(C(=O)[C@H]1CCc2c(sc3ncnc(Nc4ccc5[nH]ncc5c4)c23)C1)C(C)C` [Example 8, (7S)—N-Ethyl-4-(1H-indazol-5-ylamino)-N-(propan-2-yl)-5,6,7,8-tetrahydro[1]benzothieno[2,3-d]pyrimidine-7-carboxamide], the IC50 is 8.3 nM.

For the compound `CN(C)C(=O)[C@H]1CCc2c(sc3ncnc(Nc4cc5cn[nH]c5cc4OCCCN4CCCC4)c23)C1` [Example 277, (7S)—N,N-Dimethyl-4-({6-[3-(pyrrolidin-1-yl)propoxy]-1H-indazol-5-yl}amino)-5,6,7,8-tetrahydro[1]benzothieno[2,3-d]pyrimidine-7-carboxamide], the half-inhibitory concentration (IC50) is 59.2 nM.

With `CCN(C)C(=O)[C@@H]1CCc2c(sc3ncnc(Nc4cc5cn[nH]c5cc4OC)c23)C1` [Example 25, (7R)—N-Ethyl-4-[(6-methoxy-1H-indazol-5-yl)amino]-N-methyl-5,6,7,8-tetrahydro[1]benzothieno[2,3-d]pyrimidine-7-carboxamide], the IC50 was found to be 8.3 nM.

Consider `CN(C)C(=O)[C@H]1CCc2c(sc3ncnc(Nc4cc5cn[nH]c5cc4NCCNC(=O)OC(C)(C)C)c23)C1` [Example 244, tert-Butyl {2-[(5-{[(7S)-7-(dimethylcarbamoyl)-5,6,7,8-tetrahydro[1]benzothieno[2,3-d]pyrimidin-4-yl]amino}-1H-indazol-6-yl)amino]ethyl}carbamate], for which the half-maximal inhibitory concentration (IC50) was found to be 48.3 nM.

With `C[C@@H]1COCCN1C(=O)[C@H]1CCc2c(sc3ncnc(Nc4cc5cn[nH]c5cc4OCCN4CCCC4)c23)C1` [Example 115, [(3R)-3-Methylmorpholin-4-yl][(7S)-4-({6-[2-(pyrrolidin-1-yl)ethoxy]-1H-indazol-5-yl}amino)-5,6,7,8-tetrahydro[1]benzothieno[2,3-d]pyrimidin-7-yl]methanone], the IC50 worked out at 71.5 nM.

On to `CN(C)C1CCN(C(=O)[C@H]2CCc3c(sc4ncnc(Nc5cc6cn[nH]c6cc5OCCN5CCCCC5)c34)C2)CC1` [Example 139, [4-(Dimethylamino)piperidin-1-yl][(7S)-4-({6-[2-(piperidin-1-yl)ethoxy]-1H-indazol-5-yl}amino)-5,6,7,8-tetrahydro[1]benzothieno[2,3-d]pyrimidin-7-yl]methanone], for which the IC50 was found to be 95 nM.

Regarding `C[C@@H]1CN(C(=O)[C@H]2CCc3c(sc4ncnc(Nc5cc6cn[nH]c6cc5Br)c34)C2)C[C@H](C)O1` [Example 234, {(7S)-4-[(6-Bromo-1H-indazol-5-yl)amino]-5,6,7,8-tetrahydro[1]benzothieno[2,3-d]pyrimidin-7-yl}[(2R,6S)-2,6-dimethylmorpholin-4-yl]methanone], the 50% inhibitory concentration (IC50) is 3.4 nM.

For the compound `CN(C)c1cc2[nH]ncc2cc1Nc1ncnc2sc3c(c12)CC[C@H](C(=O)N1CCC1)C3` [Example 196, Azetidin-1-yl[(7S)-4-{[6-(dimethylamino)-1H-indazol-5-yl]amino}-5,6,7,8-tetrahydro[1]benzothieno[2,3-d]pyrimidin-7-yl]methanone], the IC50 stood at 0.1 nM.

On to `CCCCN(C)C(=O)[C@H]1CCc2c(sc3ncnc(Nc4cc5cn[nH]c5cc4N4CCC(N(C)C)CC4)c23)C1` [Example 105, (7S)—N-Butyl-4-({6-[4-(dimethylamino)piperidin-1-yl]-1H-indazol-5-yl}amino)-N-methyl-5,6,7,8-tetrahydro[1]benzothieno[2,3-d]pyrimidine-7-carboxamide], for which the IC50 turned out to be 14.1 nM.

Consider `COc1cc2[nH]ncc2cc1Nc1ncnc2sc3c(c12)CC[C@H](C(=O)N(C)C[C@@H](C)OC)C3` [Example 281, (7S)-4-[(6-Methoxy-1H-indazol-5-yl)amino]-N-[(2R)-2-methoxypropyl]-N-methyl-5,6,7,8-tetrahydro[1]benzothieno[2,3-d]pyrimidine-7-carboxamide], for which the IC50 was 0.8 nM.

On to `CN(C)CCN(C)c1cc2[nH]ncc2cc1Nc1ncnc2sc3c(c12)CC[C@H](C(=O)N(C)C)C3` [Example 151, (7S)-4-[(6-{[2-(Dimethylamino)ethyl](methyl)amino}-1H-indazol-5-yl)amino]-N,N-dimethyl-5,6,7,8-tetrahydro[1]benzothieno[2,3-d]pyrimidine-7-carboxamide], for which the IC50 amounted to 39.6 nM.

As to `CN(C)C(=O)[C@H]1CCc2c(sc3ncnc(Nc4cc5cn[nH]c5cc4N4CCC(N(C)C)CC4)c23)C1` [Example 104, (7S)-4-({6-[4-(Dimethylamino)piperidin-1-yl]-1H-indazol-5-yl}amino)-N,N-dimethyl-5,6,7,8-tetrahydro[1]benzothieno[2,3-d]pyrimidine-7-carboxamide], the IC50 was found to be 29.5 nM.

As for `CC(C)CC(=O)NCCOc1cc2[nH]ncc2cc1Nc1ncnc2sc3c(c12)CC[C@H](C(=O)N(C)C)C3` [Example 271, (7S)—N,N-Dimethyl-4-[(6-{2-[(3-methylbutanoyl)amino]ethoxy}-1H-indazol-5-yl)amino]-5,6,7,8-tetrahydro[1]benzothieno[2,3-d]pyrimidine-7-carboxamide], the 50% inhibitory concentration (IC50) turned out to be 0.5 nM.

As to `COc1cc2[nH]ncc2cc1Nc1ncnc2sc3c(c12)CC[C@H](C(=O)N1CCOCC1)C3` [Example 28, {(7S)-4-[(6-Methoxy-1H-indazol-5-yl)amino]-5,6,7,8-tetrahydro[1]benzothieno[2,3-d]pyrimidin-7-yl}(morpholin-4-yl)methanone], the IC50 was found to be 0.3 nM.

As for `CCN(C)C(=O)[C@H]1CCc2c(sc3ncnc(Nc4ccc5[nH]ncc5c4)c23)C1` [Example 4, (7S)—N-Ethyl-4-(1H-indazol-5-ylamino)-N-methyl-5,6,7,8-tetrahydro[1]benzothieno[2,3-d]pyrimidine-7-carboxamide], the IC50 was found to be 3.5 nM.

With `CSc1cc2[nH]ncc2cc1Nc1ncnc2sc3c(c12)CC[C@H](C(=O)N1C[C@@H](C)O[C@@H](C)C1)C3` [Example 252, [(2R,6S)-2,6-Dimethylmorpholin-4-yl][(7S)-4-{[6-(methylsulfanyl)-1H-indazol-5-yl]amino}-5,6,7,8-tetrahydro[1]benzothieno[2,3-d]pyrimidin-7-yl]methanone], the IC50 worked out at 1.5 nM.

With `CC(C)OC(=O)NC[C@@H](C)Oc1cc2[nH]ncc2cc1Nc1ncnc2sc3c(c12)CC[C@H](C(=O)N(C)C)C3` [Example 261, Propan-2-yl {(2R)-2-[(5-{[(7S)-7-(dimethylcarbamoyl)-5,6,7,8-tetrahydro[1]benzothieno[2,3-d]pyrimidin-4-yl]amino}-1H-indazol-6-yl)oxy]propyl}carbamate], the half-maximal inhibitory concentration (IC50) is 3.2 nM.

Consider `C[C@@H]1COCCN1C(=O)[C@H]1CCc2c(sc3ncnc(Nc4cc5cn[nH]c5cc4OCCN4CCCCC4)c23)C1` [Example 116, [(3R)-3-Methylmorpholin-4-yl][(7S)-4-({6-[2-(piperidin-1-yl)ethoxy]-1H-indazol-5-yl}amino)-5,6,7,8-tetrahydro[1]benzothieno[2,3-d]pyrimidin-7-yl]methanone], for which the IC50 came out at 1190 nM.

`CN(C)C(=O)[C@H]1CCc2c(sc3ncnc(Nc4cc5cn[nH]c5cc4S(C)(=O)=O)c23)C1` [Example 186, (7S)—N,N-Dimethyl-4-{[6-(methylsulfonyl)-1H-indazol-5-yl]amino}-5,6,7,8-tetrahydro[1]benzothieno[2,3-d]pyrimidine-7-carboxamide]: the concentration for half-maximal inhibition (IC50) came out at 44.7 nM.

`CC(C)Oc1cc2[nH]ncc2cc1Nc1ncnc2sc3c(c12)CC[C@H](C(=O)N1CC[C@@H](N(C)C)C1)C3` [Example 169, [(3R)-3-(Dimethylamino)pyrrolidin-1-yl][(7S)-4-{[6-(propan-2-yloxy)-1H-indazol-5-yl]amino}-5,6,7,8-tetrahydro[1]benzothieno[2,3-d]pyrimidin-7-yl]methanone]: the IC50 is 0.1 nM.

In the case of `CC(C)N(C)c1cc2[nH]ncc2cc1Nc1ncnc2sc3c(c12)CC[C@H](C(=O)N(C)C)C3` [Example 99, (7S)—N,N-Dimethyl-4-({6-[methyl(propan-2-yl)amino]-1H-indazol-5-yl}amino)-5,6,7,8-tetrahydro[1]benzothieno[2,3-d]pyrimidine-7-carboxamide], the IC50 was found to be 0.3 nM.

Consider `CSc1cc2[nH]ncc2cc1Nc1ncnc2sc3c(c12)CC[C@H](C(=O)N1C[C@@H](C)O[C@H](C)C1)C3` [Example 247, [(2R,6R)-2,6-Dimethylmorpholin-4-yl][(7S)-4-{[6-(methylsulfanyl)-1H-indazol-5-yl]amino}-5,6,7,8-tetrahydro[1]benzothieno[2,3-d]pyrimidin-7-yl]methanone], for which the half-maximal inhibitory concentration (IC50) amounted to 0.6 nM.

Staying with this test, now noted: Table 2; ratio of the IC50-value of an R-enantiomer and its corresponding S-enantiomer.
With `COc1cc2[nH]ncc2cc1Nc1ncnc2sc3c(c12)CC[C@H](C(=O)N1CCOCC1)C3` [Example 28, {(7S)-4-[(6-Methoxy-1H-indazol-5-yl)amino]-5,6,7,8-tetrahydro[1]benzothieno[2,3-d]pyrimidin-7-yl}(morpholin-4-yl)methanone], the “Activity-Ratio MKNK1” value is reported as 26.1.

Staying with this test, now noted: Table 3; example numbers of WO2013/174744(A1), not of this patent; pure enantiomer from chiral HPLC, absolute configuration at amide 'R or S'; read-out: MKNK1 IC50.
Take “(7S)-4-(1H-Indazol-5-ylamino)-N-methyl-N-(propan-2-yl)-5,6,7,8-tetrahydro[1]benzothieno[2,3-d]pyrimidine-7-carboxamide [Example 7]”: the IC50 came out at 10.5 nM.

The test is the same for the next values; noted with them: Table 3; example numbers of WO2013/174744(A1), not of this patent; pure enantiomer from chiral HPLC, absolute configuration at amide 'S or R'; read-out: MKNK1 IC50.
In the case of “(7S)-4-(1H-Indazol-5-ylamino)-N-methyl-N-(propan-2-yl)-5,6,7,8-tetrahydro[1]benzothieno[2,3-d]pyrimidine-7-carboxamide [Example 7]”, the IC50 turned out to be 4.5 nM.

Staying with this test, now noted: Table 3; example numbers of WO2013/174744(A1); ratio of the IC50 values of the two enantiomers.
For the compound “(7S)-4-(1H-Indazol-5-ylamino)-N-methyl-N-(propan-2-yl)-5,6,7,8-tetrahydro[1]benzothieno[2,3-d]pyrimidine-7-carboxamide [Example 7]”, the “Activity Ratio MKNK1” value was 2.3.
